Values joined by “and” are separate entries in the source; they are usually repeats but may differ in a detail not shown here. Identical values can stand only once.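 1) Cells in 96-well plates. 2) Compound, 48 h, 5 concentrations. 3) Linear interpolation between surrounding doses. 4) Unreached endpoint = highest concentration. GI50 marks 50% less growth. At the TGI there is no net growth.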

Holding throughout (test): NCI-60 cell line screen, 48 h
Assay [1] relates to A498 renal.
Assay [2] concerns A549 NSCLC.
In assay [3] the test system is BT-549 breast.
Assay [4] deals with CAKI-1 renal.
For assay [5], the system named is CCRF-CEM leukemia.
For assay [6], the system named is HOP-92 NSCLC.
Assay [7] relates to K-562 leukemia.
The subject of assay [8] is LOX IMVI melanoma.
Assay [9] has as its system PC-3 prostate.
The subject of assay [10] is SNB-19 CNS.

With `COC(=O)Nc1nc2ccc(C(=O)c3cccc(I)c3)cc2[nH]1`, the GI50 in assay [1] was 0.0434 µM; in [2] it was 0.0699 µM; in assay [3] it was 0.16 µM; in assay [4] it was 0.0538 µM; in assay [5] it was 0.0402 µM; in [6] it was 0.0985 µM. For the same compound, the GI50 was 0.0364 µM in assay [7], 0.0612 µM in [8], 0.0457 µM in assay [9] and 0.0625 µM in [10]. In addition, the TGI in [1] is 0.614 µM; in [2] it was 15 µM; in [3], 6.57 µM; in assay [4] it was 11.2 µM; in assay [5], 5.26 µM; in assay [6], 11.7 µM. Further, the TGI was 14.2 µM in assay [7], 3.92 µM in [8], 6.18 µM in assay [9] and more than 39.8 µM in assay [10].

As for `C[C@@H]1CC[C@@H]2[C@@H]1[C@H](OC(=O)/C=C/C1CCCCC1)[C@]1(C3CCCCC3)C[C@@H](OC(=O)CO)[C@@]2(C)O1`, the GI50 in assay [1] was 0.0209 µM; in assay [2], 14.2 µM; in assay [3] it was 0.0551 µM; in [4], 0.034 µM; in assay [5], 16.4 µM; in assay [6], 7.14 µM. For the same compound, the GI50 in assay [7] was 15.9 µM; in assay [8] it was 14.3 µM; in [9] it was 11.5 µM; in assay [10], 14.4 µM. The TGI came to 0.0801 µM in [1]; 27.1 µM in assay [2]; 5.7 µM in [3]; 14.8 µM in assay [4]; 34.7 µM in assay [5]; 19.6 µM in assay [6]. Besides, the TGI in [7] is 35.9 µM; in [8], 27.1 µM; in assay [9], 24.3 µM; in assay [10], 27 µM.

As to `Clc1ccc2c(NC3CCC(N4CCCCC4)CC3)ccnc2c1` (stereo unspecified), the TGI is 38.6 µM in assay [1]; more than 100 µM in assay [2]; 42.8 µM in assay [3]; 50.7 µM in assay [4]; more than 100 µM in [5]; 29.9 µM in [6]. The TGI in assay [7] was 62.1 µM; in assay [8] it was 33 µM; in assay [9], more than 100 µM; in assay [10] it was more than 100 µM.

`c1ccc2c(N=NSc3ncnc4nc[nH]c34)c3ccccc3nc2c1`: the GI50 in assay [1] was 1.13 µM; in assay [2] it was 0.648 µM; in [3], 2.76 µM; in assay [4], 1.76 µM; in [5], 1.31 µM; in assay [6] it was 1.79 µM. Besides, the GI50 was 1.58 µM in assay [7], 0.643 µM in [8], 1.63 µM in [9] and 1.36 µM in assay [10]. Moreover, the TGI in assay [1] came to 2.6 µM; in assay [2], 3.89 µM; in assay [3], 8.7 µM; in [4], 7.07 µM; in [5], 6.66 µM; in [6] it was 4.77 µM. Also, the TGI in assay [7] came out at 11.1 µM; in [8], 7.14 µM; in assay [9] it was 8.04 µM; in assay [10], 13 µM.

Regarding `CC(C)(C)NCC(O)c1ccccc1Cl` (stereo unspecified), the GI50 in [1], in assay [2], in assay [3], in assay [4], in assay [5] and in [6] was more than 100 µM each time. The GI50 in assay [7], in assay [8], in assay [9] and in [10] was more than 100 µM throughout. Further, the TGI in assay [1], in [2], in [3], in [4], in [5] and in assay [6] was more than 100 µM each time. Moreover, the TGI in assay [7], in assay [8], in [9] and in assay [10] was more than 100 µM throughout.

Consider `CC(C)[C@@H](C(=O)O[C@@H]1/C=C/C(=O)O[C@@H](C)CCC/C=C/[C@@H]2C[C@H](O)C[C@H]21)N(C)C`, for which the GI50 in assay [1] was 2.54 µM; in [2] it was 24 µM; in [3], 9.41 µM; in assay [4], 11.9 µM; in assay [5], 7.84 µM; in assay [6] it was 0.0403 µM. The GI50 in assay [7] is 20.3 µM; in [8], 17 µM; in [9] it was 6.77 µM; in assay [10] it was 37 µM. Further, the TGI in assay [1] was 7.97 µM; in assay [2] it was more than 100 µM; in assay [3], 32 µM; in assay [4], 42.8 µM; in assay [5], 35.1 µM; in assay [6], 0.0954 µM. The TGI in assay [7] was 50.7 µM; in assay [8] it was 39.9 µM; in assay [9] it was 61.6 µM; in assay [10] it was more than 100 µM.

As for `C[C@]12CCC(=O)C=C1C[C@@H](O)[C@@H]1[C@@H]2CC[C@@]2(C)[C@H]1CC[C@]2(C)O`, the TGI in [1], in [2], in assay [3], in assay [4], in [5] and in [6] was more than 100 µM throughout. Besides, the TGI in assay [7], in assay [8], in assay [9] and in assay [10] was more than 100 µM throughout.

Turning to `CCC(=O)OCOc1ccc(/C=C2\CCC(CN(C)C)C2=O)cc1` (stereo unspecified), the TGI in assay [1] is 30.6 µM; in assay [2], 40.3 µM; in [3], 13.6 µM; in [4] it was 11.5 µM; in [5], more than 23.1 µM; in assay [6], 29.5 µM. Besides, the TGI in [7] amounted to 4.66 µM; in assay [8], 4.1 µM; in assay [9] it was 27.6 µM; in [10], 32.5 µM.

In the case of `Cc1c(C(=O)Nc2ccc(N3C[C@@H](C)O[C@@H](C)C3)nc2)cccc1-c1ccc(OC(F)(F)F)cc1`, the GI50 in assay [1] is 3.77 µM and 2.04 µM; in assay [2] it was 4.91 µM and 6.91 µM; in assay [3], 10.4 µM and 15.1 µM; in assay [4], 3.86 µM and 3.89 µM; in assay [5] it was 9.77 µM and 50 µM; in assay [6], 2.51 µM and 1.79 µM. The GI50 was 3.44 µM and 3.16 µM in assay [7]; 7.11 µM and 7.68 µM in [8]; 5.44 µM and 6.68 µM in assay [9]; 7.85 µM and 21.3 µM in assay [10]. The TGI is 14 µM and 9.97 µM in assay [1]; 22.1 µM and 32.1 µM in [2]; 40.7 µM and 43.9 µM in [3]; 26.3 µM and 23.3 µM in assay [4]; more than 100 µM in [5]; 13.7 µM and 13 µM in assay [6]. Besides, the TGI in assay [7] is more than 100 µM; in assay [8] it was 31.9 µM and 67.5 µM; in assay [9], 27 µM and 36.8 µM; in [10] it was 32 µM and > 100 µM.

In the case of `Nc1nc(N)c2c(ccc3c2ccn3Cc2cccc([N+](=O)[O-])c2)n1`, the GI50 in assay [1] is 0.166 µM and 0.224 µM; in [2], 0.00496 µM; in [3], 1.25 µM; in [4] it was 0.0562 µM; in assay [5] it was 0.0221 µM and 0.0126 µM; in [8] it was 0.00831 µM. Moreover, the GI50 in assay [9] is 0.163 µM and 0.0201 µM; in assay [10], 0.0898 µM. Also, the TGI in assay [1] was 1.97 µM and 1.94 µM; in assay [2], 1.57 µM; in assay [3], 3.05 µM; in [4] it was 1.9 µM; in assay [5] it was 2.03 µM and 1.07 µM; in assay [6] it was 3.05 µM and 1.05 µM. The TGI in assay [7] is 21.6 µM; in assay [8], 1.47 µM; in assay [9] it was 2.74 µM and 1.74 µM; in [10], 2.42 µM.

As to `CC1Cc2c(Cl)ncnc2N(C)c2ccccc21` (stereo unspecified), the GI50 in [1] is 1.98 µM; in assay [2], 4.85 µM; in assay [3], 5 µM; in assay [4] it was 3.39 µM; in assay [5] it was 4.53 µM; in [6], 2.34 µM. The GI50 was 4.44 µM in assay [7], 1.71 µM in assay [8], 3.9 µM in assay [9] and 4.72 µM in assay [10]. Moreover, the TGI is 5.41 µM in assay [1]; more than 100 µM in assay [2]; 33.9 µM in assay [3]; more than 100 µM in [4]; more than 100 µM in [5]; 7.17 µM in assay [6]. Further, the TGI in assay [7] is more than 100 µM; in assay [8] it was 3.43 µM; in [9], 66.9 µM; in [10], more than 100 µM.

With `CCOC(=O)N1CCC(N=C2CSc3nnc(-c4cc(C(F)(F)F)cc(C(F)(F)F)c4)n3N2)CC1`, the GI50 is 1.94 µM in assay [1]; 1.89 µM in assay [3]; 2.04 µM in [4]; 2.01 µM in assay [5]; 1.97 µM in assay [6]; 2.88 µM in assay [7]. Further, the GI50 is 1.77 µM in assay [8], 2.2 µM in assay [9] and 3.14 µM in assay [10]. Besides, the TGI turned out to be 5.52 µM in assay [1]; 3.79 µM in assay [3]; 5.97 µM in [4]; 5.28 µM in assay [5]; 5 µM in [6]; 6.92 µM in [7]. The TGI is 3.45 µM in [8], 6.27 µM in assay [9] and 11.9 µM in assay [10].
